Assays:
[1] = target: GSK3β (Homo sapiens (Human), UniProt P49841); assay: GSK3β kinase assay (Caliper LabChip, fluoresceinated peptide substrate); assay type: biochemical; settings: 250 pM enzyme, 20 uM ATP, 1.5 uM peptide, 20 hours room temperature; read-out: GSK3β IC50 (first value of GSK3β/GSK3α)
Protocol: The kinase assay was performed in V-bottom 384-well plates. […] The reaction was incubated at room temperature for 20 hours and terminated by adding 45 μl of 35 mM EDTA to each sample. The reaction mixture was analyzed on the Caliper LabChip3000 (Caliper, Hopkinton, Mass.) by electrophoretic separation of the unphosphorylated substrate and phosphorylated product. […] Compounds were dissolved at 10 mM in dimethylsulfoxide (DMSO) and evaluated at eleven concentrations. IC50 values were derived by non-linear regression analysis.

[2] = target: GSK3α (Homo sapiens (Human), UniProt P49840); assay: GSK3α kinase assay (Caliper LabChip, fluoresceinated peptide substrate); assay type: biochemical; settings: 250 pM enzyme, 20 uM ATP, 1.5 uM peptide, 20 hours room temperature; read-out: GSK3α IC50 (second value of GSK3β/GSK3α)
From the text: IC50 values were derived by non-linear regression analysis.

[3] = tested on: pTau; assay: pTau assay; assay type: cell-based

Chain of GSK3α (P49840 whole entry, species assumed): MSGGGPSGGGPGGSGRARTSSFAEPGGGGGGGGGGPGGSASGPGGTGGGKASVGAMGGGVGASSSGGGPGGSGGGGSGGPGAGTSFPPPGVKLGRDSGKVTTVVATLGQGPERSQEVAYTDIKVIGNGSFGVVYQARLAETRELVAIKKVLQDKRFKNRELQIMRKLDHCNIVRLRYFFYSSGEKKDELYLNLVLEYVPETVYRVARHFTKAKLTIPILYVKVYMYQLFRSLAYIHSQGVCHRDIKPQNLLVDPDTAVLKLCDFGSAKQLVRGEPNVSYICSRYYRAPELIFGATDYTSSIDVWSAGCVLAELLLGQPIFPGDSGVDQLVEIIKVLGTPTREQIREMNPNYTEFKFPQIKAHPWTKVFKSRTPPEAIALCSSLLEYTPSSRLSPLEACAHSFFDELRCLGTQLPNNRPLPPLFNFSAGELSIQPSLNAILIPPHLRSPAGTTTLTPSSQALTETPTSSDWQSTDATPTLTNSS
Chain of GSK3β (P49841 whole entry, species assumed): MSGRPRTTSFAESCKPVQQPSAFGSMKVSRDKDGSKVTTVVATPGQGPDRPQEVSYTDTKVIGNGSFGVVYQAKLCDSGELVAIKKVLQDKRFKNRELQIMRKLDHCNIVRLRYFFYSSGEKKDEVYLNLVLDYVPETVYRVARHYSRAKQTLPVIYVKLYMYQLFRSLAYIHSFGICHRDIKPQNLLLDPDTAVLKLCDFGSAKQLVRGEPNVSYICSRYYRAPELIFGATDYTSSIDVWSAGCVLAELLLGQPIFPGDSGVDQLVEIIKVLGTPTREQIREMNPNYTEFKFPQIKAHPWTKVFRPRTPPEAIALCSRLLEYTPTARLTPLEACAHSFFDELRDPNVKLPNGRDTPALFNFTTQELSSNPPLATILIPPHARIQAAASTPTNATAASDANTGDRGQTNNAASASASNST

IC50 [1] [nM] | IC50 [2] [nM] | IC50 [3] [nM] | SMILES
0.75 | 0.4 | 58 | CC1CN(c2ccncc2NC(=O)c2ccnn3cc(-c4ccccc4)nc23)CCO1 (racemic) [Example 14, N-(4-(2-Methylmorpholino)pyridin-3-yl)-2-phenylimidazo[1,2-b]pyridazine-8-carboxamide]
0.2 | 0.09 | 9.2 | CC1CN(c2ccncc2NC(=O)c2ccnn3cc(-c4ccccc4)nc23)CCO1 (single isomer, unassigned) [Example 15, N-(4-(2-Methylmorpholino)pyridin-3-yl)-2-phenylimidazo[1,2-b]pyridazine-8-carboxamide]
0.8 | 0.3 | 86 | CC1CN(c2ccncc2NC(=O)c2ccnn3cc(-c4ccccc4)nc23)CCO1 (single isomer, unassigned) [Example 16, N-(4-(2-Methylmorpholino)pyridin-3-yl)-2-phenylimidazo[1,2-b]pyridazine-8-carboxamide]
– | – | 660 | O=C(Nc1cccnc1)c1ccnn2cc(-c3ccccc3)nc12 [Example 1, 2-Phenyl-N-(pyridin-3-yl)imidazo[1,2-b]pyridazine-8-carboxamide]
3.5 | 0.8 | 250 | Cc1ccncc1NC(=O)c1ccnn2cc(-c3ccccc3)nc12 [Example 2, N-(4-Methylpyridin-3-yl)-2-phenylimidazo[1,2-b]pyridazine-8-carboxamide]
0.7 | 0.4 | 83 | CC(C)Oc1ccncc1NC(=O)c1ccnn2cc(-c3ccccc3)nc12 [Example 3, N-(4-Isopropoxypyridin-3-yl)-2-phenylimidazo[1,2-b]pyridazine-8-carboxamide]
0.3 | 0.1 | 22 | O=C(Nc1cnccc1OCC(F)(F)F)c1ccnn2cc(-c3ccccc3)nc12 [Example 4, 2-Phenyl-N-(4-(2,2,2-trifluoroethoxy)pyridin-3-yl)imidazo[1,2-b]pyridazine-8-carboxamide]
1.5 | 0.4 | 120 | CS(=O)(=O)c1ccncc1NC(=O)c1ccnn2cc(-c3ccccc3)nc12 [Example 5, N-(4-(Methylsulfonyl)pyridin-3-yl)-2-phenylimidazo[1,2-b]pyridazine-8-carboxamide]
3.6 | 1.1 | 900 | O=C(Nc1cnccc1-c1ccccc1)c1ccnn2cc(-c3ccccc3)nc12 [Example 6, 2-Phenyl-N-(4-phenylpyridin-3-yl)imidazo[1,2-b]pyridazine-8-carboxamide]
1.6 | 0.6 | – | O=C(Nc1cnccc1-c1ccc(F)cc1)c1ccnn2cc(-c3ccccc3)nc12 [Example 7, N-(4-(4-Fluorophenyl)pyridin-3-yl)-2-phenylimidazo[1,2-b]pyridazine-8-carboxamide]
1.1 | 0.3 | 160 | N#Cc1ccc(-c2ccncc2NC(=O)c2ccnn3cc(-c4ccccc4)nc23)cc1 [Example 8, N-(4-(4-Cyanophenyl)pyridin-3-yl)-2-phenylimidazo[1,2-b]pyridazine-8-carboxamide]
1.1 | 0.2 | – | O=C(Nc1cnccc1N1CCCCC1)c1ccnn2cc(-c3ccccc3)nc12 [Example 9, 2-Phenyl-N-(4-(piperidin-1-yl)pyridin-3-yl)imidazo[1,2-b]pyridazine-8-carboxamide]
0.2 | 0.1 | – | N#CC1CCN(c2ccncc2NC(=O)c2ccnn3cc(-c4ccccc4)nc23)CC1 [Example 10, N-(4-(4-Cyanopiperidin-1-yl)pyridin-3-yl)-2-phenylimidazo[1,2-b]pyridazine-8-carboxamide]
0.3 | 0.2 | 24 | O=C(Nc1cnccc1N1CCC(F)CC1)c1ccnn2cc(-c3ccccc3)nc12 [Example 11, N-(4-(4-Fluoropiperidin-1-yl)pyridin-3-yl)-2-phenylimidazo[1,2-b]pyridazine-8-carboxamide]
0.4 | 0.2 | 30 | O=C(Nc1cnccc1N1CCC(F)(F)CC1)c1ccnn2cc(-c3ccccc3)nc12 [Example 12, N-(4-(4,4-Difluoropiperidin-1-yl)pyridin-3-yl)-2-phenylimidazo[1,2-b]pyridazine-8-carboxamide]
0.4 | 0.2 | 36 | O=C(Nc1cnccc1N1CCOCC1)c1ccnn2cc(-c3ccccc3)nc12 [Example 13, N-(4-Morpholinopyridin-3-yl)-2-phenylimidazo[1,2-b]pyridazine-8-carboxamide]
3.4 | 1 | 180 | C[C@@H]1COCCN1c1ccncc1NC(=O)c1ccnn2cc(-c3ccccc3)nc12 [Example 17, (R)—N-(4-(3-Methylmorpholino)pyridin-3-yl)-2-phenylimidazo[1,2-b]pyridazine-8-carboxamide]

IC50 [1] [nM] | IC50 [2] [nM] | IC50 [3] [nM] | SMILES
0.3 | 0.3 | 5.7 | C[C@H]1COCCN1c1ccncc1NC(=O)c1ccnn2cc(-c3ccccc3)nc12 [Example 18, (S)—N-(4-(3-Methylmorpholino)pyridin-3-yl)-2-phenylimidazo[1,2-b]pyridazine-8-carboxamide]
37 | – | 3200 | COc1cncc(NC(=O)c2ccnn3cc(-c4ccccc4)nc23)c1 [Example 19, N-(5-Methoxypyridin-3-yl)-2-phenylimidazo[1,2-b]pyridazine-8-carboxamide]
2.3 | 0.6 | 160 | O=C(Nc1cnc(F)cc1N1CCC(F)(F)CC1)c1ccnn2cc(-c3ccccc3)nc12 [Example 20, N-(4-(4,4-Difluoropiperidin-1-yl)-6-fluoropyridin-3-yl)-2-phenylimidazo[1,2-b]pyridazine-8-carboxamide]
0.6 | 0.2 | 140 | CC1CN(c2cc(F)ncc2NC(=O)c2ccnn3cc(-c4ccccc4)nc23)CCO1 (centres unmarked) [Example 21, N-(6-fluoro-4-(2-methylmorpholino)pyridin-3-yl)-2-phenylimidazo[1,2-b]pyridazine-8-carboxamide]
14 | 2.9 | 2000 | O=C(Nc1cnc(Cl)cc1N1CCC(F)(F)CC1)c1ccnn2cc(-c3ccccc3)nc12 [Example 22, N-(6-Chloro-4-(4,4-difluoropiperidin-1-yl)pyridin-3-yl)-2-phenylimidazo[1,2-b]pyridazine-8-carboxamide]
0.8 | 0.6 | 110 | COc1ccccc1-c1cn2nccc(C(=O)Nc3cnccc3N3CCC(F)(F)CC3)c2n1 [Example 23, N-(4-(4,4-Difluoropiperidin-1-yl)pyridin-3-yl)-2-(2-methoxyphenyl)imidazo[1,2-b]pyridazine-8-carboxamide]
0.6 | 0.4 | 79 | COc1ccccc1-c1cn2nccc(C(=O)Nc3cnccc3N3CCOC(C)C3)c2n1 (centres unmarked) [Example 24, 2-(2-Methoxyphenyl)-N-(4-(2-methylmorpholino)pyridin-3-yl)imidazo[1,2-b]pyridazine-8-carboxamide]
0.8 | 0.2 | 49 | O=C(Nc1cnccc1N1CCOCC1)c1ccnn2cc(-c3ccc(C(F)(F)F)cc3)nc12 [Example 25, N-(4-Morpholinopyridin-3-yl)-2-(4-(trifluoromethyl)phenyl)imidazo[1,2-b]pyridazine-8-carboxamide]
1.4 | 0.6 | 120 | CC1CN(c2ccncc2NC(=O)c2ccnn3cc(-c4ccc(C(F)(F)F)cc4)nc23)CCO1 (centres unmarked) [Example 26, N-(4-(2-Methylmorpholino)pyridin-3-yl)-2-(4-(trifluoromethyl)phenyl)imidazo[1,2-b]pyridazine-8-carboxamide]
19.8 | 11.4 | 760 | O=C(Nc1cnccc1N1CCCCC1)c1ccnn2ccnc12 [Example 27, N-(4-(Piperidin-1-yl)pyridin-3-yl)imidazo[1,2-b]pyridazine-8-carboxamide]
4.6 | 2 | 140 | O=C(Nc1cnccc1N1CCC(F)(F)CC1)c1ccnn2ccnc12 [Example 28, N-(4-(4,4-Difluoropiperidin-1-yl)pyridin-3-yl)imidazo[1,2-b]pyridazine-8-carboxamide]
3.8 | 3.2 | 250 | CC1CN(c2ccncc2NC(=O)c2ccnn3ccnc23)CCO1 (centres unmarked) [Example 29, N-(4-(2-Methylmorpholino)pyridin-3-yl)imidazo[1,2-b]pyridazine-8-carboxamide]
1.9 | 0.4 | 380 | O=C(Nc1cnccc1-c1ccc(F)cc1)c1ccnn2cc(C3CC3)nc12 [Example 30, 2-Cyclopropyl-N-(4-(4-fluorophenyl)pyridin-3-yl)imidazo[1,2-b]pyridazine-8-carboxamide]
0.4 | 0.2 | 120 | O=C(Nc1cnccc1N1CCC(F)(F)CC1)c1ccnn2cc(C3CC3)nc12 [Example 31, 2-Cyclopropyl-N-(4-(4,4-difluoropiperidin-1-yl)pyridin-3-yl)imidazo[1,2-b]pyridazine-8-carboxamide]
2.6 | 0.8 | 60 | CC1CN(c2ccncc2NC(=O)c2ccnn3cc(C4CC4)nc23)CCO1 (centres unmarked) [Example 32, 2-Cyclopropyl-N-(4-(2-methylmorpholino)pyridin-3-yl)imidazo[1,2-b]pyridazine-8-carboxamide]
1.3 | 0.4 | – | O=C(Nc1cnccc1N1CCOCC1)c1ccnn2cc(-c3cccnc3)nc12 [Example 36, N-(4-Morpholinopyridin-3-yl)-2-(pyridin-3-yl)imidazo[1,2-b]pyridazine-8-carboxamide]

— patent US10774086B2, “GSK-3 inhibitors” (BRISTOL-MYERS SQUIBB COMPANY, priority 2016, dated 2020)
